Reference: ChEMBL document CHEMBL3232869, “Anti-inflammatory components of Euphorbia humifusa Willd” (Bioorg Med Chem Lett, 2014)
The source made the active and inactive calls. No cut-off for these calls is given here.

The compounds below were run on RAW264.7 (assay: Cytotoxicity against mouse RAW264.7 cells assessed as cell viability at 50 uM after 18 hrs by MTT assay in presence of LPS). Conditions: raw264.7, 18 h.
Assay type: cell-based
With `CC1=CC[C@@H](C(C)(C)O[C@@H]2O[C@H](CO[C@@H]3OC[C@H](O)[C@H](O)[C@H]3O)[C@@H](O)[C@H](O)[C@H]2O)CC1` the Activity was “Non-toxic”.
For `C[C@@H]1O[C@@H](Oc2c(-c3ccc(O)c(O)c3)oc3cc(O)cc(O)c3c2=O)[C@H](OC(=O)c2cc(O)c(O)c(O)c2)[C@H](O)[C@H]1O`, the Activity was “Non-toxic”.
For `O=C1C[C@H](C(=O)O)c2c1oc(=O)c1cc(O)c(O)c(O)c21`, the Activity was “Non-toxic”.
For `COC(=O)Cc1c2c3c(cc(O)c(O)c3oc1=O)C(=O)O[C@@H]2C(=O)OC`, the Activity was “Non-toxic”.
`O=c1c(O[C@@H]2O[C@H](CO)[C@@H](O)[C@H](O)[C@H]2O)c(-c2cc(O)c(O)c(O)c2)oc2cc(O)cc(O)c12` was tested, and the Activity was “Non-toxic”.
With `O=C(O[C@@H]1O[C@@H]2COC(=O)c3cc(O)c(O)c(O)c3-c3c(cc(O)c(O)c3O)C(=O)O[C@H]([C@H]1O)[C@@H]2O)c1cc(O)c(O)c(O)c1` [CORILAGIN] the Activity was “Non-toxic”.

These compounds were tested on RAW264.7 (assay: Antiinflammatory activity in mouse RAW264.7 cells assessed as inhibition of LPS-induced TNF-alpha secretion at 10 uM after 18 hrs by sandwich ELISA). Conditions: not given.
Assay type: functional
`CC1=CC[C@@H](C(C)(C)O[C@@H]2O[C@H](CO[C@@H]3OC[C@H](O)[C@H](O)[C@H]3O)[C@@H](O)[C@H](O)[C@H]2O)CC1` was tested, and the inhibition was “Active”.
`C[C@@H]1O[C@@H](Oc2c(-c3ccc(O)c(O)c3)oc3cc(O)cc(O)c3c2=O)[C@H](OC(=O)c2cc(O)c(O)c(O)c2)[C@H](O)[C@H]1O` was tested, and the inhibition was “Active”.
`O=C1C[C@H](C(=O)O)c2c1oc(=O)c1cc(O)c(O)c(O)c21` was tested, and the inhibition was “Active”.
With `COC(=O)Cc1c2c3c(cc(O)c(O)c3oc1=O)C(=O)O[C@@H]2C(=O)OC` the inhibition was “Active”.
In the case of `O=c1c(O[C@@H]2O[C@H](CO)[C@@H](O)[C@H](O)[C@H]2O)c(-c2cc(O)c(O)c(O)c2)oc2cc(O)cc(O)c12`, the inhibition is reported as “Active”.
In the case of `O=C(O[C@@H]1O[C@@H]2COC(=O)c3cc(O)c(O)c(O)c3-c3c(cc(O)c(O)c3O)C(=O)O[C@H]([C@H]1O)[C@@H]2O)c1cc(O)c(O)c(O)c1` [CORILAGIN], the inhibition is reported as “Active”.

Each compound was assayed on RAW264.7 (assay: Antiinflammatory activity in mouse RAW264.7 cells assessed as inhibition of LPS-induced nitric oxide production after 18 hrs by griess reaction analysis). Conditions: RAW264.7, 18 h.
Assay type: functional, cell-based
In the case of `O=C1C[C@H](C(=O)O)c2c1oc(=O)c1cc(O)c(O)c(O)c21`, the IC50 is reported as 41.2 µM.
For `COC(=O)Cc1c2c3c(cc(O)c(O)c3oc1=O)C(=O)O[C@@H]2C(=O)OC`, the IC50 was 19.5 µM.
`O=c1c(O[C@@H]2O[C@H](CO)[C@@H](O)[C@H](O)[C@H]2O)c(-c2cc(O)c(O)c(O)c2)oc2cc(O)cc(O)c12` was tested, and the IC50 was 21.2 µM.
`O=C(O[C@@H]1O[C@@H]2COC(=O)c3cc(O)c(O)c(O)c3-c3c(cc(O)c(O)c3O)C(=O)O[C@H]([C@H]1O)[C@@H]2O)c1cc(O)c(O)c(O)c1` [CORILAGIN] showed an IC50 of 25.1 µM.

Each compound was assayed on RAW264.7 (assay: Antiinflammatory activity in mouse RAW264.7 cells assessed as inhibition of LPS-induced nitric oxide production at 10 uM after 18 hrs by griess reaction analysis). Conditions: not given.
Assay type: functional
For `CC1=CC[C@@H](C(C)(C)O[C@@H]2O[C@H](CO[C@@H]3OC[C@H](O)[C@H](O)[C@H]3O)[C@@H](O)[C@H](O)[C@H]2O)CC1`, the inhibition was “Active”.
`C[C@@H]1O[C@@H](Oc2c(-c3ccc(O)c(O)c3)oc3cc(O)cc(O)c3c2=O)[C@H](OC(=O)c2cc(O)c(O)c(O)c2)[C@H](O)[C@H]1O` was tested, and the inhibition was “inactive”.
With `O=C1C[C@H](C(=O)O)c2c1oc(=O)c1cc(O)c(O)c(O)c21` the inhibition was “inactive”.
In the case of `COC(=O)Cc1c2c3c(cc(O)c(O)c3oc1=O)C(=O)O[C@@H]2C(=O)OC`, the inhibition is reported as “Active”.
In the case of `O=c1c(O[C@@H]2O[C@H](CO)[C@@H](O)[C@H](O)[C@H]2O)c(-c2cc(O)c(O)c(O)c2)oc2cc(O)cc(O)c12`, the inhibition is reported as “Active”.
In the case of `O=C(O[C@@H]1O[C@@H]2COC(=O)c3cc(O)c(O)c(O)c3-c3c(cc(O)c(O)c3O)C(=O)O[C@H]([C@H]1O)[C@@H]2O)c1cc(O)c(O)c(O)c1` [CORILAGIN], the inhibition is reported as “Active”.

The compounds below were run against T1, Bifunctional epoxide hydrolase 2 (Homo sapiens) (UniProt P34913) (assay: Inhibition of sEH (unknown origin) assessed as substrate PHOME hydrolysis at 25 uM after 1 hr by fluorescence method). Conditions: not given.
T1 sequence (whole entry): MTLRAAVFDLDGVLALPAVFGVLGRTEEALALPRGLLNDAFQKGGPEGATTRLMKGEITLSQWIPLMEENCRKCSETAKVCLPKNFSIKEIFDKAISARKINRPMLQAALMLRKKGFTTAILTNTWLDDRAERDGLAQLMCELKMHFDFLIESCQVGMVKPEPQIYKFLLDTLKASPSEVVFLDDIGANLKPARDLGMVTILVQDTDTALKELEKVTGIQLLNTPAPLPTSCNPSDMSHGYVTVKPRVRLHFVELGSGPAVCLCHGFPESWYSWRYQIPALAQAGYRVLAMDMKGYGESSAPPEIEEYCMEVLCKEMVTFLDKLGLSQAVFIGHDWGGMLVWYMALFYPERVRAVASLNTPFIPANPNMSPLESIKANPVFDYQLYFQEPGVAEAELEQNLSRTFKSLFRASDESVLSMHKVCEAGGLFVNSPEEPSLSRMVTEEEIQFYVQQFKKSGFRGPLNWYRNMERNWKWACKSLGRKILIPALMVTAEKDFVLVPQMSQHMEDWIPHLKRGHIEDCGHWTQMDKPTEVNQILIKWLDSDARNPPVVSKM
`CC1=CC[C@@H](C(C)(C)O[C@@H]2O[C@H](CO[C@@H]3OC[C@H](O)[C@H](O)[C@H]3O)[C@@H](O)[C@H](O)[C@H]2O)CC1` was tested, and the inhibition was less than 40%.
`C[C@@H]1O[C@@H](Oc2c(-c3ccc(O)c(O)c3)oc3cc(O)cc(O)c3c2=O)[C@H](OC(=O)c2cc(O)c(O)c(O)c2)[C@H](O)[C@H]1O` gave an inhibition greater than 40%.
Compound `O=C1C[C@H](C(=O)O)c2c1oc(=O)c1cc(O)c(O)c(O)c21` has an inhibition greater than 40%.
`O=c1c(O[C@@H]2O[C@H](CO)[C@@H](O)[C@H](O)[C@H]2O)c(-c2cc(O)c(O)c(O)c2)oc2cc(O)cc(O)c12` showed an inhibition greater than 40%.
`O=C(O[C@@H]1O[C@@H]2COC(=O)c3cc(O)c(O)c(O)c3-c3c(cc(O)c(O)c3O)C(=O)O[C@H]([C@H]1O)[C@@H]2O)c1cc(O)c(O)c(O)c1` [CORILAGIN] gave an inhibition greater than 40%.

These compounds were tested against T2, Bifunctional epoxide hydrolase 2 (Homo sapiens, UniProt P34913) (assay: Inhibition of sEH (unknown origin) assessed as substrate PHOME hydrolysis after 1 hr by fluorescence method). Conditions: not given.
T2 sequence (P34913 whole entry): T1 sequence (whole entry)
With `C[C@@H]1O[C@@H](Oc2c(-c3ccc(O)c(O)c3)oc3cc(O)cc(O)c3c2=O)[C@H](OC(=O)c2cc(O)c(O)c(O)c2)[C@H](O)[C@H]1O` the IC50 was 18.6 µM.
Compound `O=C1C[C@H](C(=O)O)c2c1oc(=O)c1cc(O)c(O)c(O)c21` has an IC50 of 47.4 µM.
`O=c1c(O[C@@H]2O[C@H](CO)[C@@H](O)[C@H](O)[C@H]2O)c(-c2cc(O)c(O)c(O)c2)oc2cc(O)cc(O)c12` showed an IC50 of 17.2 µM.

Each compound was assayed on RAW264.7 (assay: Antiinflammatory activity in mouse RAW264.7 cells assessed as inhibition of LPS-induced TNF-alpha secretion after 18 hrs by sandwich ELISA). Conditions: RAW264.7, 18 h.
Assay type: functional, cell-based
`CC1=CC[C@@H](C(C)(C)O[C@@H]2O[C@H](CO[C@@H]3OC[C@H](O)[C@H](O)[C@H]3O)[C@@H](O)[C@H](O)[C@H]2O)CC1` gave an IC50 greater than 50 µM.
`C[C@@H]1O[C@@H](Oc2c(-c3ccc(O)c(O)c3)oc3cc(O)cc(O)c3c2=O)[C@H](OC(=O)c2cc(O)c(O)c(O)c2)[C@H](O)[C@H]1O` showed an IC50 of 26.1 µM.
With `O=C1C[C@H](C(=O)O)c2c1oc(=O)c1cc(O)c(O)c(O)c21` the IC50 was 21.3 µM.
`O=C(O[C@@H]1O[C@@H]2COC(=O)c3cc(O)c(O)c(O)c3-c3c(cc(O)c(O)c3O)C(=O)O[C@H]([C@H]1O)[C@@H]2O)c1cc(O)c(O)c(O)c1` [CORILAGIN] was tested, and the IC50 was 38.5 µM.

The compounds below were run on RAW264.7 (assay: Antiinflammatory activity in mouse RAW264.7 cells assessed as inhibition of LPS-induced TNF-alpha secretion at 0.4 uM after 18 hrs by sandwich ELISA). Conditions: not given.
Assay type: functional, cell-based
`CC1=CC[C@@H](C(C)(C)O[C@@H]2O[C@H](CO[C@@H]3OC[C@H](O)[C@H](O)[C@H]3O)[C@@H](O)[C@H](O)[C@H]2O)CC1` was tested, and the inhibition was “inactive”.
With `C[C@@H]1O[C@@H](Oc2c(-c3ccc(O)c(O)c3)oc3cc(O)cc(O)c3c2=O)[C@H](OC(=O)c2cc(O)c(O)c(O)c2)[C@H](O)[C@H]1O` the inhibition was “inactive”.
With `O=C1C[C@H](C(=O)O)c2c1oc(=O)c1cc(O)c(O)c(O)c21` the inhibition was “inactive”.
In the case of `COC(=O)Cc1c2c3c(cc(O)c(O)c3oc1=O)C(=O)O[C@@H]2C(=O)OC`, the inhibition is reported as “inactive”.
In the case of `O=c1c(O[C@@H]2O[C@H](CO)[C@@H](O)[C@H](O)[C@H]2O)c(-c2cc(O)c(O)c(O)c2)oc2cc(O)cc(O)c12`, the inhibition is reported as “inactive”.
`O=C(O[C@@H]1O[C@@H]2COC(=O)c3cc(O)c(O)c(O)c3-c3c(cc(O)c(O)c3O)C(=O)O[C@H]([C@H]1O)[C@@H]2O)c1cc(O)c(O)c(O)c1` [CORILAGIN] was tested, and the inhibition was “inactive”.

What follows are compounds tested on RAW264.7 (assay: Antiinflammatory activity in mouse RAW264.7 cells assessed as inhibition of LPS-induced nitric oxide production at 0.4 uM after 18 hrs by griess reaction analysis). Conditions: not given.
Assay type: functional, cell-based
In the case of `CC1=CC[C@@H](C(C)(C)O[C@@H]2O[C@H](CO[C@@H]3OC[C@H](O)[C@H](O)[C@H]3O)[C@@H](O)[C@H](O)[C@H]2O)CC1`, the inhibition is reported as “inactive”.
For `C[C@@H]1O[C@@H](Oc2c(-c3ccc(O)c(O)c3)oc3cc(O)cc(O)c3c2=O)[C@H](OC(=O)c2cc(O)c(O)c(O)c2)[C@H](O)[C@H]1O`, the inhibition was “inactive”.
With `O=C1C[C@H](C(=O)O)c2c1oc(=O)c1cc(O)c(O)c(O)c21` the inhibition was “inactive”.
`COC(=O)Cc1c2c3c(cc(O)c(O)c3oc1=O)C(=O)O[C@@H]2C(=O)OC` was tested, and the inhibition was “inactive”.
With `O=c1c(O[C@@H]2O[C@H](CO)[C@@H](O)[C@H](O)[C@H]2O)c(-c2cc(O)c(O)c(O)c2)oc2cc(O)cc(O)c12` the inhibition was “inactive”.
`O=C(O[C@@H]1O[C@@H]2COC(=O)c3cc(O)c(O)c(O)c3-c3c(cc(O)c(O)c3O)C(=O)O[C@H]([C@H]1O)[C@@H]2O)c1cc(O)c(O)c(O)c1` [CORILAGIN] was tested, and the inhibition was “inactive”.
